Experimental data from patent US20250282733A1, “NOVEL 1,2,3,4,4A,5,6,7,8,9,10,10A-DODECAHYDROBENZO[G]QUINOLIN-6-OL COMPOUNDS AND USES THEREOF” (priority 2022, published 2025).

Key:
Format in all cases: in vivo, rat
Arc mRNA = test: m-RNA analysis of Arc in brain regions (real-time PCR); details: 0.3 and 1 μmol/kg SC, 60 min after injection, percent of control, FIG. 5
Experimental: (§1) Animals were killed 60 min after the injection of the drugs by decapitation.
(§2) The brains were dissected into a left and a right part. The left part was analyzed for gene expression and dissected into 4 different areas:
(§3) Limbic system (containing nucleus accumbens, most parts of the olfactory tubercle, ventral pallidum and amygdala), striatum, frontal cortex, and hippocampus.
(§4) Total RNA was prepared by RNeasy Plus Universal Tissue Mini Kit (Qiagen).
(§5) RNA pellets were dissolved in RNAse-free water and stored at −80° C. The sample concentration was determined spectrophotometrically by a NanoDrop ND-1000.
A two-step reversed transcription was performed by using a SuperScript III kit (Invitrogen). 1 μg of total RNA was reversed transcribed with 5 μl 2×RT Reaction Mix, 1 μl RT Enzyme and the mix volume was adjusted to 10 μl with RNAse-free water. The sample was incubated at 25° C. for 10 min, 50° C. for 30 min and finally 85° C. for 5 min. 1 U of E. coli RNase H was added following incubation at 37° C. for 20 min and 85° C. for 5 minutes. The cDNA solution was diluted 40 times in Tris EDTA buffer solution pH8 (Merck) and stored at −20° C.
Three sequences (arc and two reference genes) were amplified together in a triplex PCR-reaction. For real-time PCR measurements: 5 μl of the cDNA reaction was amplified in a 20 μl reaction mixture containing 10 μl PerfeCTa MultiPlex qPCR SuperMix (Quantabio), 3.5 μl RNAse-free water, 0.15 µM of each primer and 0.1 μM of each probe. Real-time PCR was measured on CFX96 (Bio-Rad) using the following settings for all genes: 3 min pre-incubation at 95° C. followed by 40 cycles of denaturation at 95° C. for 15 s, annealing and elongation at 60° C. for 1 min. Reference genes are HPRT and cyclophilin.
FIG. 5 illustrates the effects on tissue levels of Arc mRNA in four different regions of the brain (limbic regions, striatum, frontal cortex and hippocampus) after subcutaneous administration of two different compounds at two different doses as in comparison to that of corresponding control experiments. The bars in the left half of the figure represent the effects on ARC by the prior art compound according to Preparation 4A ((4aR,10aR)-1-propyl-1,2,3,4,4a,5,8,9,10,10a-decahydrobenzo[g]quinolin-6 (7H)-one) and the bars in the right half of the figure represent the effects on ARC by the compound of the present disclosure according to Example 4B ((4aR,10aR)-1-propyl-1,2,3,4,4a,5,6,7,8,9,10,10a-dodecahydrobenzo[g]quinolin-6-ol). The effects on tissue levels of Arc by both of the two aforementioned compounds were measured at two different doses (0.3 μmol/kg and 1 μmol/kg) and the effect is presented as percent of control means±SEM. Statistical significance was assessed using Student's t-test (2 tailed) vs controls.

[1] = system: non-pre-treated Sprague-Dawley rats; test: Spontaneous locomotor activity (distance travelled); details: 0.3 μmol/kg SC; for effect on motor activity (distance travelled): n=5, 0-180 min, vs saline, FIG. 6 and 7
Experimental: Behavioral activity was measured using eight Digiscan activity monitors (RXYZM (16) TAO, Omnitech Electronics, Columbus, OH, USA), connected to an Omnitech Digiscan analyzer and an Apple Macintosh computer equipped with a digital interface board (NB DIO-24, National Instruments, USA). Each activity monitor consisted of a quadratic metal frame (W×L=40 cm×40 cm) equipped with photo beam sensors. During measurements of behavioral activity, a rat was put in a transparent acrylic cage (W×L×H, 40×40×30 cm) which in turn was placed in the activity monitor. Each activity monitor was equipped with three rows of infrared photo beam sensors, each row consisting of 16 sensors. Two rows were placed along the front and the side of the floor of the cage, at a 90° angle, and the third row was placed 10 cm above the floor to measure vertical activity. Photo beam sensors were spaced 2.5 cm apart. Each activity monitor was fitted in an identical sound and light attenuating box containing a weak house light and a fan.
The computer software was written using object-oriented programming (LabVIEW™ National instruments, Austin, TX, USA).
Behavioral data from each activity monitor, representing the position (horizontal center of gravity and vertical activity) of the animal at each time, were recorded at a sampling frequency of 25 Hz and collected using a custom written LABView™ application. The data from each recording session were stored and analyzed with respect to distance traveled. Each behavioral recording session lasted 180 min, starting approximately 5 min after the injection of test compound.
Compounds disclosed herein have been tested for effects on spontaneous locomotor activity in non-pre-treated Sprague-Dawley rats (based on accumulated distance travelled 0-180 min post dosing), and with the single dose of 0.3 μmol/kg (n=5, SC) compared to a control group of animals (n=5) that obtained saline (SC). The unit of the distance travelled is an arbitrary unit.
The animals were placed in the motility meters immediately after administration and locomotor activity was recorded for 180 minutes.
Results are presented as distance travelled for the control group (empty bar) and for the group of animals that obtained the drug (filled bar).
The animals were placed in the motility meters immediately after administration and locomotor activity was recorded for 180 minutes. Results are presented as distance travelled for the control group (empty bars) and for the group of animals that obtained the drug (filled bar).

[2] = system: unilaterally 6-OHDA lesioned rats; test: Contralateral rotations in unilaterally 6-OHDA lesioned rats; details: for contralateral turns: dopamine-receptor agonist potency / duration of action as compared to that of apomorphine / bioavailability indicated by contralateral turns after IP and PO administration: 0.1 mg/kg, FIG. 4; for contralateral turns: dopamine-receptor agonist potency: IP (n=4) and PO (n=6); for duration of action as compared to that of apomorphine: IP and PO; for bioavailability indicated by contralateral turns after IP and PO administration: IP vs PO
Experimental: Male Sprague-Dawley rats (150 g; Scanbur, Sweden) were used for this study and housed in separate air-conditioned rooms (12-h dark/light cycle) at 20° C. and a humidity of 53%. Experiments were performed in agreement with the European Communities Council Directive of 24 Nov. 1986 (86/609/EEC) on the ethical use of animals and were approved by the local ethical committee at Karolinska Institute. In most of the experiments, unilaterally 6-OHDA lesioned rats were used to mimic aspects of Parkinsonism. Unilateral 6-OHDA lesioning of nigral dopaminergic axons was performed as previously described (Zhang et al., Neuropharmacology 54 (2008) 1143-1152). Briefly, rats were anesthetized with ketamine (100 mg/kg, i.p.; Parke-Davis, Boxmeer, Netherlands)/xylazine (5 mg/kg, i.p.; Bayer, Kiel, Germany), pretreated with desipramine (25 mg/kg, i.p.; Sigma, Stockholm, Sweden) and pargyline (5 mg/kg, i.p.; Sigma), placed in a stereotaxic instrument and injected with 6-OHDA (2.5 p.I of a 5 mg/ml solution; Sigma) into the medial forebrain bundle of the right hemisphere (AP—2.8 mm, ML—2.0 mm and V—9.0 mm). Two weeks after unilateral 6-OHDA lesioning, rats were administered with apomorphine (1 mg/kg, i.p; Sigma), and their contralateral rotations were measured. […] Only rats which rotated contralaterally more than 100 times were included in further experiments.
The time scale is minutes or hours after administration. […] Negative control animals were injected with saline.

egr-1 = test: m-RNA analysis of egr-1 in brain regions (Taqman PCR); details: SC
Experimental: as §1, §2, §3, §4, §5
(§6) A two-step reversed transcription was performed by using a SuperScript III kit (Invitrogen). 1 μg of total RNA was reversed transcribed with 5 μl 2×RT Reaction Mix, 1 μl RT Enzyme and the mix volume was adjusted to 10 μl with RNAse-free water. The sample was incubated at 25° C. for 10 min, 50° C. for 30 min and finally 85° C. for 5 min. […]
(§7) EGR-1 (Early growth response qRnoCEP0022872) was analyzed in duplex with the reference gene HPRT (hypoxanthine phosphoribosyltransferase qRnoCEP0050840). Npas4 (neuronal PAS domain protein4 qRnoCEP0029461) was analyzed in singleplex. The reference gene Ppia (cyclophilin A peptidyl-propyl cis-trans isomerase qRnoCIP0050815) was also analyzed in order to quantify gene expression for genes of interest.

Npas4 = test: m-RNA analysis of Npas4 in brain regions (Taqman PCR); details: SC
Experimental: as §1, §2, §3, §4, §5, §6, §7

For `CCCN1CCC[C@@H]2CC3=C(CCCC3=O)C[C@H]21` [Preparation 4A, (4aR,10aR)-1-propyl-1,2,3,4,4a,5,8,9,10,10a-decahydrobenzo[g]quinolin-6 (7H)-one], the “tissue levels of Arc in the frontal cortex” value (Arc mRNA) was “dose-dependently increase”, the “tissue levels of Arc in the limbic regions” value (Arc mRNA) was “does not have” and the “on-set of action (distance travelled increases after the initial decrease)” value [1] was 20 to 25 min. For the same compound, the “time at which a long distance travelled is already reached (steep immediate effect)” value [1] was 20 to 45 min, the “peak plasma concentration of the active species, inferred from locomotor data” value ([1]; compared to Example 4B) was “higher peak plasma concentration” and the “effect on motor activity (distance travelled)” value [1] was “induce hyperactivity”.
In the case of `CN1CCc2cccc3c2[C@H]1Cc1ccc(O)c(O)c1-3` [apomorphine, reference compound], the “contralateral turns as a function of time (course of effect)” value ([2]; 1 mg/kg i.p., FIG. 3) is reported as “declines over time”.
In the case of `CCCN1CCC[C@@H]2CC3=C(CCC[C@@H]3O)C[C@H]21` [epimer 2, (4aR,6S,10aR)-1-propyl-1,2,3,4,4a,5,6,7,8,9,10,10a-dodecahydrobenzo[g]quinolin-6-ol], the “contralateral turns: dopamine-receptor agonist potency” value [2] is reported as “highly potent dopamine-receptor agonists”, the “duration of action as compared to that of apomorphine” value [2] is reported as “very long duration of action” and the “bioavailability indicated by contralateral turns after IP and PO administration” value [2] is reported as “good bioavailability”.
In the case of `CCCN1CCC[C@@H]2CC3=C(CCC[C@H]3O)C[C@H]21` [Example 4B, (4aR,6R,10aR)-1-propyl-1,2,3,4,4a,5,6,7,8,9,10,10a-dodecahydrobenzo[g]quinolin-6-ol], the “contralateral turns: dopamine-receptor agonist potency” value [2] is reported as “highly potent dopamine-receptor agonists”, the “duration of action as compared to that of apomorphine” value [2] is reported as “very long duration of action” and the “bioavailability indicated by contralateral turns after IP and PO administration” value [2] is reported as “good bioavailability”. The “tissue levels of Arc in the frontal cortex” value (Arc mRNA) was “dose-dependently increase”, the “tissue levels of Arc in the limbic regions” value (Arc mRNA) was “dose-dependently increases” and the “tissue levels of egr-1 in the limbic regions” value (egr-1; 60 min after injection) was “increases tissue levels”. The “increase of egr-1 in the limbic regions compared to Preparation 4A” value (egr-1; vs prior art compound) was “to a greater extent”, the “tissue levels of Npas4 in the limbic regions” value (Npas4; 60 min after injection) was “increases tissue levels” and the “increase of Npas4 in the limbic regions compared to Preparation 4A” value (Npas4; vs prior art compound) was “to a greater extent”. The “on-set of action (distance travelled increases after the initial decrease)” value [1] was 35 to 40 min, the “side effect profile, inferred from slower on-set of action” value [1] was “no or a mild side effect profile” and the “effect on motor activity (distance travelled)” value [1] was “induce hyperactivity”.
